The record followed here is ChEMBL document CHEMBL3044762, “Design, Synthesis and Evaluation of Trisubstituted Thiazoles Targeting Plasmodium Falciparum Cysteine Proteases” (Med Chem Res, 2005).

One data set concerns the target T1, Falcipain 2 (Plasmodium falciparum, UniProt Q9N6S8).
T1 sequence (Q9N6S8 whole entry): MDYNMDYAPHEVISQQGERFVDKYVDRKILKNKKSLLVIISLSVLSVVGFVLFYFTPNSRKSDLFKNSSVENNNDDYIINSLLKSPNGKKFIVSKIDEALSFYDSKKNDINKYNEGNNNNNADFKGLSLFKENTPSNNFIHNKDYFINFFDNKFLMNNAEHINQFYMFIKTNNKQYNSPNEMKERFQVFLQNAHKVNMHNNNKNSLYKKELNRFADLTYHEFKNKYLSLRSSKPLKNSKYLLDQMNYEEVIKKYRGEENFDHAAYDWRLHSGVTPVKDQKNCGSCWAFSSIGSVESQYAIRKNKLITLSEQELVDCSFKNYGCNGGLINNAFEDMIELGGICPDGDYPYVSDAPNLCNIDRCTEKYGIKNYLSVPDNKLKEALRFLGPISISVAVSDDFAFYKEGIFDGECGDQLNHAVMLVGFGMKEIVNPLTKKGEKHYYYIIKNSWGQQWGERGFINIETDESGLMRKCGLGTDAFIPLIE
The experiment in a line: Inhibition of recombinant Plasmodium falciparum falcipain-2 using Z-Leu-Arg-AMC as substrate compound treated for 30 min before substrate addition by fluorescence assay.

Data set [1] concerns Plasmodium falciparum. The experiment in a line: Antimalarial activity against Plasmodium falciparum D6 after 72 hr by LDH assay. The settings on record: D6, 72 h. It is filed as functional, organism-based.
Data set [2] concerns Plasmodium falciparum. Nature of the data set: Antimalarial activity against Plasmodium falciparum W2 after 72 hr by LDH assay. The format is functional, organism-based. The settings on record: W2, 72 h.
A further data set relates to Leishmania donovani. Nature of the data set: Antileishmanial activity against Leishmania donovani promastigotes after 72 hr by alamar blue assay. It is filed as functional, organism-based. For orientation: Resazurin is reduced to fluorescent resorufin, in cell work by metabolically active cells.
Data set [3] concerns Vero. The experiment in a line: (§1) Cytotoxicity against Chlorocebus aethiops (African green monkey) Vero cells by Neutral Red assay. The format is cell-based. The conditions noted are these: chlorocebus sabaeus, vero.
A further data set deals with Falcipain-3 (Plasmodium falciparum, UniProt Q8IIL0). The experiment in a line: Inhibition of recombinant Plasmodium falciparum falcipain-3 using Z-Leu-Arg-AMC as substrate compound treated for 30 min before substrate addition by fluorescence assay.
Data set [4] deals with Plasmodium falciparum. The experiment in a line: Antimalarial activity against Plasmodium falciparum D6 at EC50 after 72 hr by LDH assay. The format is functional. Also on record: concentration or dose not given beside the values.
Data set [5] deals with Plasmodium falciparum. Nature of the data set: Antimalarial activity against Plasmodium falciparum W2 […] after 72 hr by LDH assay. The format is functional.
Data set [6] is described as follows: as §1. It is filed as cell-based. The conditions noted are these: chlorocebus sabaeus, Vero cells; read-out: TD50 (the source's name).
In data set [7] the test system is Vero. Nature of the data set: Cytotoxicity against Chlorocebus aethiops (African green monkey) Vero cells at TD50 by Neutral Red assay. The format is cell-based. The conditions noted are these: chlorocebus sabaeus.

pEC50, pIC50: −log10 of the molar value. Where only a bound is given, the exact number is not on record here.

Chain of Falcipain-3 (Q8IIL0 whole entry, looked up): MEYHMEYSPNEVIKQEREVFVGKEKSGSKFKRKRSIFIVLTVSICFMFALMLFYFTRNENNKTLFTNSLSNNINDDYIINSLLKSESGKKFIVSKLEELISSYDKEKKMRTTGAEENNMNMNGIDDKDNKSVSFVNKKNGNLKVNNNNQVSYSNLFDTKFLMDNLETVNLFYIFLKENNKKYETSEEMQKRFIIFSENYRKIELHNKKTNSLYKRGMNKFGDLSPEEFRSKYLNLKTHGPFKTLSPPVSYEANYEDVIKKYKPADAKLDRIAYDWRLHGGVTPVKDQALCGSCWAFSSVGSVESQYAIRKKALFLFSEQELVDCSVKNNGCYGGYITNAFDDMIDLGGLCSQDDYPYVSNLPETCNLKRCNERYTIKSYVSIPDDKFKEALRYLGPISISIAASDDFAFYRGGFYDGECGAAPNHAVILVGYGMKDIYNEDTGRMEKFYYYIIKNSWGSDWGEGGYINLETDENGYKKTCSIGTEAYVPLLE

As usually defined, the pIC50 is the negative decadic logarithm of the IC50, by convention in mol/L. A word on the pEC50: it is the EC50 on a negative log10 scale, so that one unit is a factor of ten. For `CC(=O)OCc1nc(CCC(=O)CSCCCc2ccccc2)sc1CCc1ccccc1`, the pIC50 at Falcipain 2 was < 4.48; at Falcipain-3, < 4.30. Also, the pEC50 with Plasmodium falciparum [1] is 4.52; in the data set with Plasmodium falciparum [2], 4.60; with Leishmania donovani it was 4.54. The TD50 entry in the data set on Vero [3] is listed as “Non-toxic”.
The molecule `C[C@@H]1[C@H](O)[C@@H](C)/C=C/C=C/C=C/C=C/C=C/C=C/C=C/[C@H](O[C@@H]2O[C@H](C)[C@@H](O)[C@H](N)[C@@H]2O)C[C@@H]2O[C@](O)(C[C@@H](O)C[C@@H](O)[C@H](O)CC[C@@H](O)C[C@@H](O)CC(=O)O[C@H]1C)C[C@H](O)[C@H]2C(=O)O` [AMPHOTERICIN B] showed a pEC50 with Leishmania donovani of 6.70.
For the molecule `O=C(CCc1nc(CO)c(CCc2ccccc2)s1)CSCCCc1ccccc1`, the pIC50 was < 4.90 on Falcipain 2 and < 4.30 at Falcipain-3. In addition, in the data set on Plasmodium falciparum [2], the pEC50 was < 4.70.
For `O=CCCc1sc(CCC(=O)CSCCCc2ccccc2)nc1CCc1ccccc1`, the pIC50 was 4.41 on Falcipain 2 and < 4.30 on Falcipain-3. Further, the pEC50 is < 4.29 in the data set with Plasmodium falciparum [1], < 4.29 with Plasmodium falciparum [2] and 5.09 with Leishmania donovani. The figures for the “inhibition (INH)” value with Plasmodium falciparum [4] and in the data set on Plasmodium falciparum [5] were 45% and 26%, respectively. Further, the TD50 entry in the data set with Vero [3] is “Non-toxic”.
Take `CCOC(=O)CCc1sc(NC(=O)CSCCCc2ccccc2)nc1/C=C/c1ccccc1`: the pEC50 is 4.55 with Plasmodium falciparum [1], 4.69 with Plasmodium falciparum [2] and 4.30 with Leishmania donovani. For the same molecule, the TD50 result in the data set on Vero [3] is “Non-toxic”.
As to `NC(=O)CCc1sc(NC(=O)CSCCCc2ccccc2)nc1/C=C/c1ccccc1`, the values for the pIC50 at Falcipain 2 and at Falcipain-3 were 4.82 and 4.26, respectively. Also, the pEC50 in the data set on Plasmodium falciparum [1] was < 4.29; in the data set on Plasmodium falciparum [2], < 4.29; in the data set on Leishmania donovani it was 4.33. For the same molecule, the “inhibition (INH)” value worked out at 45% in the data set with Plasmodium falciparum [4] and 26% in the data set with Plasmodium falciparum [5]. Also, the TD50 result in the data set with Vero [3] was “Non-toxic”.
Regarding `O=C(CCc1nc(CCc2ccccc2)c(CCCO)s1)CSCCCc1ccccc1`, the figures for the pIC50 on Falcipain 2 and at Falcipain-3 were < 4.90 and < 4.30, respectively. The pEC50 with Plasmodium falciparum [1] is 4.69; with Plasmodium falciparum [2], 4.72; in the data set on Leishmania donovani, 4.79. Also, the CC50 in data set [6] turned out to be 40.6 µM.
Take `CCN(CC)CCCC(C)Nc1ccnc2cc(Cl)ccc12` (stereo not drawn) [CHLOROQUINE]: the pEC50 is 7.23 with Plasmodium falciparum [1] and 6.44 with Plasmodium falciparum [2].
For `CC(=O)NCCCc1sc(CCC(=O)CSCCCc2ccccc2)nc1CCc1ccccc1`, the pIC50 at Falcipain 2 was < 4.48; on Falcipain-3, < 4.30. In addition, the pEC50 in the data set on Plasmodium falciparum [1] is 4.49; with Plasmodium falciparum [2] it was 4.77; with Leishmania donovani it was 4.41. Further, the TD50 result in the data set with Vero [3] is “Non-toxic”.
For `C[C@@H]1CC[C@H]2[C@@H](C)C(=O)O[C@@H]3O[C@@]4(C)CC[C@@H]1[C@]32OO4` [ARTEMISININ], the pEC50 with Plasmodium falciparum [1] was 7.60; with Plasmodium falciparum [2] it was 7.64.
`N=C(N)c1ccc(OCCCCCOc2ccc(C(=N)N)cc2)cc1` [PENTAMIDINE]: in the data set with Leishmania donovani, the pEC50 is 5.30.
Regarding `NC(=O)CCc1sc(CCC(=O)CSCCCc2ccccc2)nc1CCc1ccccc1`, the pIC50 at Falcipain 2 is < 4.48; on Falcipain-3, < 4.30. Further, the figures for the pEC50 in the data set with Plasmodium falciparum [1], in the data set on Plasmodium falciparum [2] and with Leishmania donovani were < 4.31, < 4.31 and 4.38, respectively. The molecule also came in with an Activity with Vero [7] of 38%. Besides, the “inhibition (INH)” value with Plasmodium falciparum [4] was 42%; with Plasmodium falciparum [5], 43%. The CC50 in data set [6] was > 49.5 µM.
For `Nc1nc(CCc2ccccc2)c(CCCO)s1`, the figures for the pEC50 with Plasmodium falciparum [1], in the data set with Plasmodium falciparum [2] and with Leishmania donovani were < 4.04, < 4.04 and < 3.82, respectively. Moreover, the “inhibition (INH)” value in the data set on Plasmodium falciparum [4] is recorded as 37%; with Plasmodium falciparum [5] it was 26%. For the same molecule, the TD50 result in the data set on Vero [3] is given as “Non-toxic”.
For `O=C(/C=C/c1nc(CCc2ccccc2)c(CCCO)s1)CSCCCc1ccccc1`, the pIC50 on Falcipain 2 was > 5.18; on Falcipain-3 it was 4.53. Moreover, the pEC50 in the data set with Plasmodium falciparum [1] was 4.45; in the data set on Plasmodium falciparum [2], 4.86; in the data set with Leishmania donovani it was 5.35. Also, in data set [6], the CC50 is > 51.1 µM.
